# Counter-ions that a name gives are not always drawn.
# Experiments:
# [1] = tested on: effects of monoamine oxidase inhibitor (nialamide); experiment: Potentiation of effects of monoamine oxidase inhibitor (nialamide) in mice, actimetric measurements; assay type: in vivo; design: key: Potentiation of the effects of nial amide for the tested product was expressed in increasing number of + sign for a determined dose in mg/kg; settings: nialamide 100 mg/kg i.p. 30 minutes before, actimetric values every 30 minutes for 6 hours
# From the text: The administration of a monoamine oxidase inhibitor to mice induces a hyperactive movement of the animals which is able to be potentiated by an antidepressant. […] Potentiation of the effects of nial amide for the tested product was expressed in increasing number of + sign for a determined dose in mg/kg.
# [2] = tested on: effects of L-dopa; experiment: Potentiation of effects of L-dopa in mice pretreated with iproniazide; assay type: in vivo; settings: Mus musculus, ip, one hour before L-dopa 100 mg/kg i.p.; male mice, iproniazide 75 mg/kg i.p. 18 hours before; read-out: ED50 dose which potentiates by 50% the L-dopa effects
# Method: The administration of L-dopa to mice pretreated 18 hours previously with iproniazide produced certain number of symptoms; muscular hypertonicity, hyperactivity, agitation crying, aggressiveness, salivation and exophthalmy. The intensity of these effects is potentiated by administration of an antidepressant one hour before the administration of L-dopa. Male mice received intraperitoneally 75 mg/kg of iproniazide 18 hours before the start of the test and the tested product was intraperitoneally administered in aqueous solution in increasing doses. One hour later, L-dopa was intraperitoneally administered at a dose of 100 mg/kg and the different symptoms were observed 15 and 30 minutes later. They were evaluated on a scale of 0 to 3 for each animal and the totals for each dose were determined.
# [3] = tested on: serotonine (5HT) uptake; experiment: Inhibition of serotonine (5HT) uptake in vitro in impure brain synaptosomes; assay type: biochemical; settings: synaptosomes from entire brain of female rat 19 to 21 days old, 14C-5HT 10^-7 M, 37° C., 5 minutes; read-out: I.C. 50, 50% inhibiting concentration of 14C-5HT uptake
# Method: The inhibition of serotonine (5HT) uptake was measured in impure synaptosomes prepared from the entire brain of a female rat 19 to 21 days old using the technique of Kannengiesser et al [Biochemical Pharmacology, Vol. 22, (1973) p. 73].
# [4] = Acute toxicity, intraperitoneal; settings: mouse, in vivo, ip; mice, i.p., determined 48 hours later; read-out: DL50 dose which kills 50% of mice
# Method: The DL50 dose which kills 50% of mice after intraperitoneal administration of the tested compound was determined 48 hours later and the DL50 for the compounds is reported in Table III.
smiles,measurement,setting,value
"CNCC1C=Cc2cc(O)ccc2CC1.Cl (stereo not drawn) [Example 6, 7-methylaminomethyl-6,7-dihydro [5H] benzocycloheptene-2-ol-hydrochloride]",Potentiation of Nialamide,[1]; 5 mg/kg i.p.,+
same,Potentiation of Nialamide,[1]; 20 mg/kg i.p.,+
same,ED50,[2],20 mg/kg
same,IC50,[3],980 nM
same,LD50 at 48 h,[4],75 mg/kg
"CNCC1C=Cc2cc(N)ccc2CC1 (stereo not drawn) [Example 4, di-(N-methyl-2-amino-6,7-dihydro [5H]benzocycloheptene-7-methanamine) fumarate]",IC50,[3],6800 nM
same,LD50 at 48 h,[4],100 mg/kg
"CNCC1C=Cc2cc(OC)ccc2CC1.Cl (stereo not drawn) [Example 5, N-methyl-2-methoxy-6,7-dihydro [5H] benzocycloheptene-7-methanamine hydrochloride]",ED50,[2],50 mg/kg
same,IC50,[3],1400 nM
same,LD50 at 48 h,[4],100 mg/kg
CN(C)CC1C=Cc2cc([N+](=O)[O-])ccc2CC1 (stereo not drawn) [1 - 2],Potentiation of Nialamide,[1]; 5 mg/kg i.p.,+
same,Potentiation of Nialamide,[1]; 20 mg/kg i.p.,+
same,IC50,[3],630 nM
same,LD50 at 48 h,[4],150 mg/kg
"CNCC1C=Cc2cc([N+](=O)[O-])ccc2CC1 (stereo not drawn) [Example 3, N-methyl-2-nitro-6,7-dihydro [5H] benzocycloheptene-7-methanamine hydrochloride]",Potentiation of Nialamide,[1]; 20 mg/kg i.p.,+
same,ED50,[2],20 mg/kg
same,IC50,[3],590 nM
same,LD50 at 48 h,[4],100 mg/kg

# Reference: patent US4117164A, “Aminomethyl-benzocycloheptenes and method of use” (Roussel Uclaf, priority 1976, dated 1978)
